Test results reported in patent publication EP0559845B1, “Use of compounds in preventing endotoxin shock” (priority 1991, dated 1992).

Tests used:
mice (strain C57BL/10) = assay: Protection of mice against lethal endotoxemia; type: in vivo; conditions: for mice survived: intravenous
Method: Eight week old mice (strain C57BL/10) were allowed to rest for at least 7 days following their arrival and were sexually segregated and housed at 5 per cage with food and water ad libitum. Intravenous injection of a GTPase inhibiting compound (lipid X dissolved in saline as described above) and/or lipopolysaccharide was achieved by the retroorbital sinus route using a 27 gauge needle. No more than 0.1 ml of fluid was injected at a time. Just prior to injection, the mice were lightly anesthetized with ether. Following the injection, mice were observed every 0.5-6 hours and the time of death was recorded. In a few experiments, mice were injected by the intraperitoneal route with solutions of lipid X and/or lipopolysaccharide similar to those described above.
The lethal dose of E. coli endotoxin was determined both for the intravenous and for the intraperitoneal challenge. The lethal dose that killed 100% of the mice (LD100) was 250 µg intravenously and 500 µg intraperi toneally. (It is important to standardize each lot of endotoxin with each lot of mice.) To determine the approximate dose of lipid X needed to protect against a lethal challenge of endotoxin, mice were pretreated with lipid X intraperitoneally 2 hours before challenge with 1500 µg of endotoxin, which is 3 times the LD100 dose. Pretreatment of mice with lipid X appeared to prolong the time to death four-fold (from about 20 hours to 80 hours).
Because both lipid X and lipopolysaccharide (LPS) were given intraperitoneally in these preliminary experiments, the possibility existed of slow or variable rates of absorption. Consequently, an intravenous challenge route was selected to test for protective efficiency. Mice were given 750 µg of lipid X from 24 hours prior to 6 hours after endotoxin challenge with 1-2 LD100 doses. Forty-one percent of mice receiving 500 µg lipid X from 6 hours prior to endotoxin challenge through 1 hour after LPS challenge survived. When a lower endotoxin challenge dose (250 µg) was used, 81% of the mice survived if treated with lipid X from 1 hour prior to through 4 hours post LPS challenge. […] Perhaps this is due to the fact that those animals were anesthetized twice in a short period and received the toxic endotoxin challenge before receiving lipid X. The reversal of the lethal toxicity of endotoxin at times as late as 4 hours after endotoxin challenge is especially striking. […] By 4 hours after injection of the 250 µg of intravenous lipopolysaccharide, the mice had stopped normal behavior, i.e. nesting had stopped, decreased spontaneous activity occurred, and the animals were shaking.

sheep = assay: Toxicity of lipid X in sheep; type: in vivo; conditions: 40 sheep injected
Method: Mixed breed sheep weighing 30-70 kg were obtained from the University of Wisconsin Experimental Farms. Sheep were prepared as follows: at least 24 hours before each experiment, catheters were percutaneously placed in the pulmonary artery. Any other catheterizations that were required for infusion were done at this time. All studies were performed on awake, unrestrained sheep placed in portable stanchions with food and water ad libitum. Electronically calculated pulmonary artery pressures as well as heart rates were recorded at various intervals on a polygraph. To ensure a stable baseline prior to the injection of test compounds, approximately 1 hour of baseline measurements were recorded.
To test for the toxicity of lipid X in mice, C57BL/10 mice were challenged with 750, 2000 or 5000 µg of lipid X intraperitoneally (12 mice) or with 750, 1500 or 3000 µg intravenously (7 mice). […] Consequently, lipid X appeared to be nontoxic in mice, as in sheep.
About 30 sheep were examined by Burhop with regard to lipid X toxicity.

[1] = test system: GTPase activity in membranes isolated from a macrophage (RAW 264.7) cell line; assay: GTPase assay, basal activity and single agonists; type: biochemical
Excerpt: We sought to directly evaluate the influence of LPS on possible G-protein function by examining agonist-enhanced GTPase activity, which is a hallmark of G-protein action. Moreover, because macrophages are one of the key cell types in the release of toxic mediators following an LPS challenge, we first assessed the capacity of LPS to influence GTPase activity in membranes isolated from RAW 264.7 cells, which is a highly LPS-responsive macrophage cell line. In these studies, GTPase activity was measured using a standard assay. The activity was determined using 2 µM γ-^32P-GTP in the presence of 0.1 mM ATP and 0.2 mM of the non-hydrolyzable ATP analog, AMPPNP, in order to minimize nonspecific nucleotidase activity in the membrane preparations. In the preferred practice of the present invention, the ability of a candidate compound to inhibit LPS-induced GTPase is assessed by measuring the release of ^32Pi from γ-^32P-GTP.
We first determined the optimal LPS concentration for GTPase stimulation. In all experiments, the LPS dose response curve was quite steep, and with the highest activity occurring around 200-300 µg LPS/ml.
Under these conditions, GTPase activation was evident at 100 µg LPS/ml (roughly 6 µM assuming an average MW ∼ 17,000 kDa), and the maximal effect was seen by 300 µg/ml LPS. (2) To show adenosine mucleotide synergism with LPS-stimulated GTPase activity, either 10µM ATP or 30µM ADP replace the 0.1 mM ATP and 0.2 mM AMPPNP of the standard assay described by Cassel et al. and Neer et al.
Because the above inhibitor studies indicated a maximum LPS-stimulated GTPase activity in the presence of ATP and ATP analogs, we investigated this interaction by measuring the ATP-dependence of the GTPase activity in macrophage membranes in the presence and absence of an optimal dose of LPS. […] This stimulation by ATP may be due to the action of purinergic receptors, i.e., the adenosine and ATP receptors which are well-characterized to be coupled to various G-proteins.
To assess whether the LPS/ATP-enhanced GTPase is a "low Km" form, which would be expected for a variety of large and small MW G-proteins, as well as for various GAP and ARF-like proteins, as opposed to a "high Km" form, such as a phosphatase, we assayed the GTPase activity using 0.2 and 50 µM GTP essentially as described previously. […] The LPS and ATP stimulated a low Km GTPase activity by ∼30% and 70%, respectively, when added individually. This stimulation of low Km activity was slightly greater than that estimated using the standard assay conditions. […] The LPS stimulation of GTPase activity is enhanced by adenine nucleotides.

CCCCCCCCCCC[C@@H](O)CC(=O)N[C@H]1[C@@H](OP(=O)(O)O)O[C@H](CO)[C@@H](O)[C@@H]1OC(=O)C[C@H](O)CCCCCCCCCCC [lipid X]
mice survived (mice (strain C57BL/10); endotoxin challenge 250 µg, lipid X from 1 hour prior through 4 hours post LPS challenge): 81% | mice survived (mice (strain C57BL/10); printed '500 µg lipid X', from 6 hours prior to endotoxin challenge through 1 hour after): Forty-one | prevention of lethal endotoxicity on late treatment (mice (strain C57BL/10); lipid X given 6 hours after lipopolysaccharide): appears to prevent lethal endotoxicity | prolongation of the time to death (mice (strain C57BL/10); lipid X intraperitoneally 2 hours before 1500 µg endotoxin): four-fold | time to death (mice (strain C57BL/10); lipid X intraperitoneally 2 hours before 1500 µg endotoxin (3 times LD100), control about 20 hours): ~80 h | adverse complications of lipid X administration (sheep): no serious adverse complications | effect on basal GTPase activity [1]: slightly reducing
